The structures appear in SMILES notation. pIC50: −log10 of the molar value. Converted amounts (≈) assume the structure as drawn. Where a name gives a salt, the structure may show the parent alone. Read-outs that look alike come from different tables or passages of the source.

Assay [1] deals with susceptible H37Rv M. tuberculosis, strain ATCC 25618. Kind of assay: Mycobacterium tuberculosis susceptibility assay REMA (resazurin microtiter assay). To be noted: for MIC: Mycobacterium tuberculosis, 144 h, read-out: REMA MIC. More on the design: REMA MIC: unit not given here. It counts as cell-based.
Another assay has as its system HepG2 cell line. The assay is described as follows: in vitro cytotoxicity assay (MTS tetrazolium reduction, cell viability). To be noted: Homo sapiens, HepG2, 48 h. It counts as cell-based. On the procedure:
In an embodiment, the in vitro cytotoxicity assay was carried out as follows. […] The assay was performed in 96 well plates for 48 h at 37° C. and 5% CO2 in incubation medium (low glucose DMEM with Glutamax, 10% FBS, 1% Pen/Strep and DMSO). Cells were exposed to 8 different compound concentrations in successive dilutions (usually, base 2), plus a positive control (a compound in a concentration known to decrease cell viability above 50%) and a negative control (incubation medium). Six replicate wells were assayed for each condition. Compound stock solutions were prepared in DMSO at 20 mM, whenever possible, filter sterilized, aliquoted and stored at −20° C. The maximum compound concentrations tested depend on its solubility in incubation medium, and on the maximum DMSO percentage allowable without loss of cell viability. At the end of the incubation period, tetrazolium reagent was added (CellTiter 96® AQueous Solution from Promega); cells were incubated for another 3 hours in order to promote tetrazolium reduction to formazan by viable cells. The amount of soluble formazan produced was evaluated by 490 nm absorbance reading in a spectrophotometer plate reader.
On the technique in general: Formazan colour is commonly taken as a measure of viable cells.

Where [2] appears, read: Table 1, MTB growth, H37Rv, 6 days at 37° C., Middlebrook 7H9.
Setting [3] is: Table 2, MTB growth, H37Rv, 6 days at 37° C., Middlebrook 7H9.
The mark [4] stands for this setting: Table 1, cytotoxicity, MTS, read-out: IC50.

Regarding `O=C(O)C1CCN(c2ccc3cc(-c4ccc(OC(F)(F)F)cc4)ccc3n2)CC1` [Compound 2, 1-(6-(4-(Trifluoromethoxy)phenyl)quinolin-2-yl)piperidine-4-carboxylic acid], the MIC in assay [1] (setting [2]) and in assay [1] (setting [3]) was < 7.8 µM in each case. Consider `CCOC(=O)C1CCN(c2ccc3cc(-c4ccc(O)cc4)ccc3n2)CC1` [Compound 3, Ethyl 1-(6-(4-hydroxyphenyl)quinolin-2-yl)piperidine-4-carboxylate], for which, in assay [1] (setting [2]), the minimal inhibitory concentration (MIC) lay within 7.8 to 15.6 µM (≈ 2.94 to 5.87 µg/mL). Further, in the assay with HepG2 cell line (setting [4]), the pIC50 is < 4.00. On to `CCOC(=O)C1CCN(c2ccc3cc(-c4cnc(OC)nc4)ccc3n2)CC1` [Compound 4, ethyl 1-(6-(2-methoxypyrimidin-5-yl)quinolin-2-yl)piperidine-4-carboxylate], for which the minimum inhibitory concentration (MIC) in assay [1] (setting [2]) and in assay [1] (setting [3]) was < 7.8 µM in each case. Moreover, the pIC50 is < 4.00 in the assay on HepG2 cell line (setting [4]) and < 4.00 in the assay on HepG2 cell line (Table 2, cytotoxicity, MTS, read-out: IC50). Take `CCOC(=O)C1CCN(c2ccc3cc(-c4cccc(F)c4)ccc3n2)CC1` [Compound 8, ethyl 1-(6-(3-fluorophenyl)quinolin-2-yl)piperidine-4-carboxylate]: the minimum inhibitory concentration (MIC) in assay [1] (setting [2]) and in assay [1] (setting [3]) was < 7.8 µM each time.

`CC(C)Oc1ccc(-c2ccc3nc(N4CCC(C(=O)O)CC4)ccc3c2)cc1F` [Compound 10, 1-(6-(3-fluoro-4-isopropoxyphenyl)quinolin-2-yl)piperidine-4-carboxylic acid]: the minimum inhibitory concentration (MIC) in assay [1] (setting [2]) and in assay [1] (setting [3]) was < 7.8 µM in each case. Regarding `O=C(O)C1CCN(c2ccc3cc(-c4cccc(F)c4)ccc3n2)CC1` [Compound 11, 1-(6-(3-fluorophenyl)quinolin-2-yl)piperidine-4-carboxylic acid], the minimum inhibitory concentration (MIC) in assay [1] (setting [2]) and in assay [1] (setting [3]) was < 7.8 µM each time. As to `CCOC(=O)C1CCN(c2ccc3cc(-c4ccc(OC)nc4)ccc3n2)CC1` [Compound 14, ethyl 1-(6-(6-methoxypyridin-3-yl)quinolin-2-yl)piperidine-4-carboxylate], the MIC in assay [1] (setting [2]) and in assay [1] (setting [3]) was < 7.8 µM throughout.

Take `CCOC(=O)C1CCN(c2ccc3cc(-c4ccncc4)ccc3n2)CC1` [Compound 15, ethyl 1-(6-(pyridin-4-yl)quinolin-2-yl)piperidine-4-carboxylate hydrochloride]: the minimal inhibitory concentration (MIC) in assay [1] fell in the range of 7.8 to 15.6 µM. Moreover, the pIC50 in the assay with HepG2 cell line was < 4.00.

On to `CCOC(=O)C1CCN(c2ccc3cc(-c4ccco4)ccc3n2)CC1` [Compound 16, ethyl 1-(6-(furan-2-yl)quinolin-2-yl)piperidine-4-carboxylate], for which the MIC in assay [1] (setting [2]) lay within 7.8 to 15.6 µM (≈ 2.73 to 5.47 µg/mL). Also, the negative logarithm of the IC50 (pIC50) with HepG2 cell line (setting [4]) is < 4.00. In the case of `O=C(O)C1CCN(c2ccc3cc(-c4ccncc4)ccc3n2)CC1` [Compound 18, 1-(6-(pyridin-4-yl)quinolin-2-yl)piperidine-4-carboxylic acid hydrochloride], the MIC in assay [1] lay within 7.8 to 15.6 µM.

In the case of `CCOC(=O)C1CCN(c2ccc3cc(-c4ccc(OC)cc4Cl)ccc3n2)CC1` [Compound 19, ethyl 1-(6-(2-chloro-4-methoxyphenyl)quinolin-2-yl)piperidine-4-carboxylate], the MIC in assay [1] (setting [2]) and in assay [1] (setting [3]) was < 7.8 µM each time. Take `CCOC(=O)C1CCN(c2ccc3cc(-c4ccc(OC)cc4)ccc3n2)CC1` [Compound 20, ethyl 1-(6-(4-methoxyphenyl)quinolin-2-yl)piperidine-4-carboxylate]: in assay [1], the MIC lay in the range of 7.8 to 15.6 µM (≈ 3.05 to 6.09 µg/mL). Further, the pIC50 in the assay on HepG2 cell line is < 4.00.

Turning to `COc1ccc(-c2ccc3nc(N4CCC(C(=O)O)CC4)ccc3c2)cc1` [Compound 21, 1-(6-(4-methoxyphenyl)quinolin-2-yl)piperidine-4-carboxylic acid], the MIC in assay [1] (setting [2]) and in assay [1] (setting [3]) was < 7.8 µM throughout. Consider `COc1cccc(-c2ccc3nc(N4CCC(C(=O)O)CC4)ccc3c2)c1` [Compound 22, 1-(6-(3-methoxyphenyl)quinolin-2-yl)piperidine-4-carboxylic acid], for which the MIC in assay [1] (setting [2]) fell in the range of 7.8 to 15.6 µM (≈ 2.83 to 5.65 µg/mL). Besides, in the assay on HepG2 cell line (setting [4]), the pIC50 is < 4.00.

As for `COc1ccc(-c2ccc3nc(N4CCC(C(=O)O)CC4)ccc3c2)c(Cl)c1` [Compound 23, 1-(6-(2-chloro-4-methoxyphenyl)quinolin-2-yl)piperidine-4-carboxylic acid], in assay [1] (setting [2]), the MIC was 7.8 to 15.6 µM (≈ 3.1 to 6.19 µg/mL). Consider `CCOC(=O)C1CCN(c2ccc3cc(-c4ccc(OC)cc4C(F)(F)F)ccc3n2)CC1` [Compound 24, ethyl 1-(6-(4-methoxy-2-(trifluoromethyl)phenyl)quinolin-2-yl)piperidine-4-carboxylate hydrochloride], for which the MIC in assay [1] is < 7.8 µM. For the same compound, the “REMA MIC” value in assay [1] (setting [3]) is “++++ (<7.8)”.

`CCOC(=O)C1CCN(c2ccc3cc(-c4cccc(OC(F)(F)F)c4)ccc3n2)CC1` [Compound 25, ethyl 1-(6-(3-(trifluoromethoxy)phenyl)quinolin-2-yl)piperidine-4-carboxylate]: the MIC in assay [1] (setting [2]) and in assay [1] (setting [3]) was < 7.8 µM throughout. As to `O=C(O)C1CCN(c2ccc3cc(-c4cccc(OC(F)(F)F)c4)ccc3n2)CC1` [Compound 29, 1-(6-(3-(trifluoromethoxy)phenyl)quinolin-2-yl)piperidine-4-carboxylic acid], the MIC in assay [1] (setting [2]) and in assay [1] (setting [3]) was < 7.8 µM each time. For the compound `CCOC(=O)C1CCN(c2ccc3cc(-c4cccc(OC)c4)ccc3n2)CC1` [Compound 30, ethyl 1-(6-(3-methoxyphenyl)quinolin-2-yl)piperidine-4-carboxylate], the minimal inhibitory concentration (MIC) in assay [1] (setting [2]) lay in the range of 7.8 to 15.6 µM (≈ 3.05 to 6.09 µg/mL). Further, the pIC50 in the assay with HepG2 cell line (setting [4]) was < 4.00.

Consider `CCOC(=O)C1CCN(c2ccc3cc(-c4ccc(F)nc4)ccc3n2)CC1` [Compound 35, ethyl 1-(6-(6-fluoropyridin-3-yl)quinolin-2-yl)piperidine-4-carboxylate], for which the minimal inhibitory concentration (MIC) in assay [1] (setting [2]) was 7.8 to 15.6 µM (≈ 2.96 to 5.92 µg/mL). For the same compound, the pIC50 in the assay with HepG2 cell line (setting [4]) is < 4.00.

For `CCOC(=O)C1CCN(c2ccc3cc(-c4ccc(C)nc4)ccc3n2)CC1` [Compound 50, ethyl 1-(6-(6-methylpyridin-3-yl)quinolin-2-yl)piperidine-4-carboxylate], the minimum inhibitory concentration (MIC) in assay [1] (setting [2]) and in assay [1] (setting [3]) was < 7.8 µM in each case. With `CCOC(=O)C1CCN(c2ccc3cc(-c4ccccn4)ccc3n2)CC1` [Compound 55, ethyl 1-(6-(pyridin-2-yl)quinolin-2-yl)piperidine-4-carboxylate], the minimal inhibitory concentration (MIC) in assay [1] (setting [2]) and in assay [1] (setting [3]) was < 7.8 µM in each case. Regarding `CCOC(=O)C1CCN(c2ccc3cc(-c4ccc(OC)c(F)c4)ccc3n2)CC1` [Compound 58, ethyl 1-(6-(3-fluoro-4-methoxyphenyl)quinolin-2-yl)piperidine-4-carboxylate], the minimal inhibitory concentration (MIC) in assay [1] (setting [2]) and in assay [1] (setting [3]) was < 7.8 µM throughout. On to `CCOC(=O)C1CCN(c2ccc3cc(-c4ccc(Cl)c(F)c4)ccc3n2)CC1` [Compound 63, ethyl 1-(6-(4-chloro-3-fluorophenyl)quinolin-2-yl)piperidine-4-carboxylate], for which the minimum inhibitory concentration (MIC) in assay [1] (setting [2]) and in assay [1] (setting [3]) was < 7.8 µM each time. Consider `CCOC(=O)C1CCN(c2ccc3cc(-c4cccc(Cl)c4)ccc3n2)CC1` [Compound 64, ethyl 1-(6-(3-chlorophenyl)quinolin-2-yl)piperidine-4-carboxylate], for which, in assay [1] (setting [2]), the MIC lay in the range of 7.8 to 15.6 µM (≈ 3.08 to 6.16 µg/mL).

With `CCOC(=O)C1CCN(c2ccc3cc(-c4ccncc4)ccc3n2)C1` (stereo not shown) [Compound 67, ethyl 1-(6-(pyridin-4-yl)quinolin-2-yl)pyrrolidine-3-carboxylate], the minimal inhibitory concentration (MIC) in assay [1] (setting [2]) lay within 7.8 to 15.6 µM (≈ 2.71 to 5.42 µg/mL). On to `CCOC(=O)C1CCN(c2ccc3cc(-c4cc5ccccc5s4)ccc3n2)CC1` [Compound 68, ethyl 1-(6-(benzo[b]thiophen-2-yl)quinolin-2-yl)piperidine-4-carboxylate], for which the MIC in assay [1] (setting [2]) is 7.8 to 15.6 µM (≈ 3.25 to 6.5 µg/mL). As for `CCOC(=O)C1CCN(c2ccc3cc(-c4ccccc4C(F)(F)F)ccc3n2)CC1` [Compound 69, ethyl 1-(6-(2-(trifluoromethyl)phenyl)quinolin-2-yl)piperidine-4-carboxylate], the MIC in assay [1] (setting [2]) and in assay [1] (setting [3]) was < 7.8 µM in each case. In the case of `CCOC(=O)C1CCN(c2ccc3cc(-c4ccccc4OC(F)(F)F)ccc3n2)CC1` [Compound 70, ethyl 1-(6-(2-(trifluoromethoxy)phenyl)quinolin-2-yl)piperidine-4-carboxylate], in assay [1] (setting [2]), the MIC is < 7.8 µM.

Regarding `CCOC(=O)C1CCN(c2ccc3cc(-c4ccc(F)cc4OC)ccc3n2)CC1` [Compound 71, ethyl 1-(6-(4-fluoro-2-methoxyphenyl)quinolin-2-yl)piperidine-4-carboxylate], the MIC in assay [1] (setting [3]) is < 7.8 µM. For the compound `CCOC(=O)C1CCN(c2ccc3cc(-c4ccc(OC)c(C(F)(F)F)c4)ccc3n2)CC1` [Compound 72, ethyl 1-(6-(4-methoxy-3-(trifluoromethyl)phenyl)quinolin-2-yl)piperidine-4-carboxylate], the MIC in assay [1] (setting [2]) lay in the range of 7.8 to 15.6 µM (≈ 3.58 to 7.15 µg/mL).

On to `CCOC(=O)C1CCN(c2ccc3cc(-c4cccc(F)c4)ccc3n2)CC1` [Compound 74, ethyl 1-(6-(3-fluorophenyl)quinolin-2-yl)piperidine-4-carboxylate], for which, in assay [1] (setting [2]), the “REMA MIC” value was “+++ (7.8-15.6)”. With `CCOC(=O)C1CCN(c2ccc3cc(-c4ccc(F)c(Cl)c4)ccc3n2)CC1` [Compound 75, ethyl 1-(6-(3-chloro-4-fluorophenyl)quinolin-2-yl)piperidine-4-carboxylate], the minimal inhibitory concentration (MIC) in assay [1] (setting [2]) lay in the range of 7.8 to 15.6 µM (≈ 3.22 to 6.44 µg/mL).

Broadly, the MIC is the least concentration at which growth counts as inhibited. As usually defined, the pIC50 is −log10 of the IC50, conventionally taken in molar units.

(Values after patent publication US12383548B2, “Antibacterial quinolines” (priority 2019, dated 2025).)
